# Entries after “also recorded” stand apart in the source; their conditions may differ.
# How the values were obtained:
# [1] = system: in vitro complement activation (C3 and C4 conversion; MASP-2); experiment: in vitro complement activation (C3a and C4a by RIA) in blood or plasma of normal donors; type: biochemical, human; settings: for MASP activity: inferred from C4a generation in EDTA blood (FIG. 2); for C4 conversion in blood, additive combined with EDTA: additive plus EDTA, 60 min at rt (FIG. 2); for C4 conversion (C4a generation) in whole blood / C3a generation in whole blood: no EDTA; for C4 conversion (C4a generation) in whole blood: over 60 min at rt (FIG. 2); for C3a generation in whole blood: 0.15 mM Benzamidine, 20 μM Trasylol or 0.1 mg/ml Futhan, 0 time vs 60 min at rt (FIG. 2)
# Procedure: (§1) Blood samples were either drawn into EDTA tubes (Venoject, Terumo Corp. Elkston, Md.) or Futhan/EDTA tubes (Venoject, Terumo Europe, Leuven, Belgium). The plasma was collected immediately by centrifugation at 2000 g for 15 min. at 4° C. unless otherwise indicated. The plasma samples were either processed immediately for analysis or snap frozen in liquid nitrogen and stored at -70° C. Frozen samples were thawed at 4° C. and processed as described in the text.
# (§2) Equal volumes of the plasma sample and the precipitating reagent supplied in the Biotrak RIA kits were mixed by thorough agitation and incubated at rt. for 5 min. The mixture was then centrifuged at 2500 g for 15 min. at 4° C. The supernatant from each sample tube was collected for analysis in the RIA assay. A 50 μl aliquot of the original or diluted supernatant was mixed with 50 μl of the Biotrak assay buffer in a 12×75 mm polypropylene tube. The I^125 labeled C3a or C4a and the specific antibody solutions (50 μl each from the kit) were added and incubated at rt. for 30 min. (for antibody to C3a, C4a, C5a and des Arg derivatives thereof, see Hugli et al. (1975) J. Biol. Chem. 250:1472-1478; Hugli (1975) J. Biol. Chem. 250:8293; and Hugli et al. (1981) J. Biol. Chem. 256:2685-2692). A 50 μl aliquot of the second antibody (goat anti-rabbit) was added to the tube and the mixture incubated for an additional 30 min. at rt. Two ml of isotonic saline was added and the tube was centrifuged at 2000 g for 10 min. at 4° C. to pellet the antigen-antibody complexes. The supernatant in the tubes was decanted and the tubes were counted for 1 min. in a Cobra Auto-gamma Model 5002 (Packard Instrument Co., Meriden, Conn.) scintillation counter. Analysis of each sample was performed in duplicate. Data was analyzed using RiaSmart software supplied by Packard Instruments and installed in the Cobra Auto-gamma counter.
# Blood from a normal donor was drawn into EDTA and 0 to 0.2 mg/ml Futhan was added over time indicated. Plasma was recovered within 30 min. of being drawn and a precipitating agent was added to the 0 time plasma sample (EDTA/p10) to prevent further C-activation. An EDTA/Futhan plasma sample (EDTA/p1) and an EDTA/Futhan blood sample (EDTA/b1) were stored for 1 hr. at 22° C. A separate set of EDTA/Futhan plasma samples were either stored at 4° C. for 24 hr (EDTA/p4) or frozen at -70° C. for 24 hr (EDTA/pF) and then thawed for analysis. C3a and C4a levels were determined using a radioimmunoassay procedure.
# Whole blood from a normal donor was drawn into 0.15 mM benzamidine, 20 μM Trasylol or 0.1 mg/ml Futhan and processed either immediately (0 time) or after 60 min. at rt, and then analyzed for C3a and C4a.
# In this experiment, whole EDTA (0.5 mg/ml) blood from a normal donor was incubated at 4° C. with and without 0.1 mg/ml Futhan added. The C3a and C4a levels were determined versus time over 23-hr.
# Complement activation in EDTA plasma was compared with activation in EDTA/Futhan plasma at room temperature (22-24° C.) over a period of one hour (experiment 3A). […] All blood samples were drawn into EDTA, with and without 0.1 mg/ml Futhan present, and the plasma was collected (see Materials and Methods) and frozen at -70° C. These samples were thawed at 4° C. and analyzed after 0 and 60 min. at rt.
# [2] = system: in vitro complement activation (C3 and C4 conversion; MASP-2); experiment: in vitro complement activation (C3a and C4a by RIA) in plasma of liver transplant patients; type: biochemical, human
# Procedure: Blood from nineteen liver transplant patients was collected in 0.1 mg/ml Futhan and 0.5 mg/ml EDTA. The C3a and C4a levels were measured at 0 time and after 1 hr at room temperature. These samples were obtained during routine visits by the patients having no signs of acute rejection episodes.
# Blood samples of 5-10 ml were drawn from normal donors, liver transplant and SLE (lupus) patients under an approved Human Subjects protocol #96-293 and all individuals were asked to sign an informed consent form agreeing to be voluntary donors. Normal donors were a random group of male and female individuals between the ages of 27-48. Liver transplant patients were selected from a group of patients being routinely followed at The Scripps Clinic Foundation by Dr. John Brems. None of these organ transplant patients were experiencing acute rejection episodes at the time that the blood was drawn.
# as §1, §2
# C3a and C4a generation was examined in EDTA plasma of liver transplant patients (average values, n=19) with and without […] Futhan present. These subjects were stable transplant patients not undergoing a clinically detectable rejection episode.
# [3] = system: Factor Xa; settings: Hitomi et al. (1985); cited from earlier work
# [4] = system: Hageman factor; settings: Hitomi et al. (1985); cited from earlier work
# [5] = system: acute rejection episode in liver transplant patients; experiment: treatment of rejection episodes in liver transplant patients; type: in vivo, human; settings: two 1 g (I.V.) doses
# Description: Blood and urine samples were collected over a period of two years from 63 liver transplant patients during routine post-operative clinical visits. The patients' identities were concealed and no selection process or attempt was made to recruit patients for any other reason than that they had undergone orthotopic liver transplantation at The Scripps Clinic and Research Foundation. Immunosuppression was initiated with a regimen of cyclosporine A (CsA), azathioprine and steroids. Treatment for some of these patients was switched to FK506, but none was treated with OKT3. Patients were seen weekly in the outpatient transplant clinic after transplantation until their liver function tests stabilized. […] Measurement of the relevant clinical parameters was obtained during each visit. Liver biopsies were obtained whenever there was an abnormality in liver function tests.
# [6] = normal donor, listed as benzamidine
# [7] = n=20, stored at 4° C. for 24 hours
# [8] = normal plasma, n = 20, processed immediately at rt, total data set
# [9] = normal plasma, processed immediately at rt, values outside ± 2σ eliminated
# [10] = Table III samples, plasma processed immediately
compound,measurement,setting,value
"N=C(N)c1ccccc1 [Benzamidine, benzamidine]",MASP activity,[1],does not inhibit MASP activity
same,"C4 conversion in blood, additive combined with EDTA",[1]; normal donor,extensive conversion of C4 occurred
same,"C4 conversion in blood, additive combined with EDTA",[1]; [6],high levels of C4a are generated
same,C4 conversion (C4a generation) in whole blood,[1]; normal donor,relatively effective in preventing C4 conversion
same,C4 conversion (C4a generation) in whole blood,[1]; [6],no C4a generated in whole blood
same,C3a generation in whole blood,[1]; normal donor,failed to prevent C3a generation
"O=C(O)CN(CCN(CC(=O)O)CC(=O)O)CC(=O)O [EDTA, ethylenediaminetetraacetic acid]",C4a in liver transplant patient plasma after 60 min at rt,"[2]; n=19, average",16.9 µg/mL
same,C4a in liver transplant patient plasma at 0 time,"[2]; n=19, average",4.02 µg/mL
same,C4a level in liver transplant patient plasma at 0 time,"[2]; n=19, average (experiment 3B)",4020 ± 6100 ng/mL
same,activity of the Lectin Pathway in EDTA plasma,"[1]; Table II, line III",IN VITRO
same,C4a elevation over 60 min in normal plasma,"[1]; n=11, average, rt",3-4 fold
same,C4a level in normal plasma at 0 time,"[1]; n=11, frozen at -70° C., thawed at 4° C., 0 min at rt (experiment 3A)",242 ± 95 ng/mL
same,C4a level in normal plasma after 60 min,"[1]; n=11, frozen at -70° C., thawed at 4° C., 60 min at rt (experiment 3A)",768 ± 392 ng/mL
same,C3a values in normal plasma,[1]; [7],0.60 ± 0.026 µg/mL
same,C4a levels in normal plasma,[1]; [7],0.32 ± 0.017 µg/mL
same,"C4a level in whole blood at 4° C., end","[1]; normal donor, EDTA 0.5 mg/ml, after 23 hr",more than 1700 ng/ml
same,"C4a level in whole blood at 4° C., start","[1]; normal donor, EDTA 0.5 mg/ml, start of 23-hr period",300 ng/mL
same,"C3a, mean ± standard deviation, data set I","[1]; normal plasma, n = 20, EDTA 1 mg/ml or Futhan 0.2 mg/ml and EDTA, processed immediately at rt, total data set",599 ± 263 ng/mL
same,"C3a, range of values, data set I",[1]; [8],349 to 1344 ng/mL
same,"C4a, mean ± standard deviation, data set I",[1]; [8],316 ± 169 ng/mL
same,"C4a, range of values, data set I",[1]; [8],130 to 774 ng/mL
same,"C3a, mean ± standard deviation, data set II",[1]; [9],484 ± 110 ng/mL
same,"C3a, range of values, data set II",[1]; [9],349 to 722 ng/mL
same,"C4a, mean ± standard deviation, data set II",[1]; [9],268 ± 95 ng/mL
same,"C4a, range of values, data set II",[1]; [9],130 to 433 ng/mL
same,C3 conversion when EDTA was added to the blood,[1]; normal whole blood (FIG. 2),virtually no C3 was converted
same,C4 conversion when EDTA was added to the blood,[1]; normal whole blood (FIG. 2),remarkable increase in C4 conversion
same,"C3a levels in whole blood at 4° C. versus time, relative to Futhan/EDTA blood",[1]; over 23 hr,only slightly higher
same,C3a generation in normal blood at 4° C.,[1]; over a 27-hr period,sufficient to prevent C3a generation
"CS(=O)(=O)O.CS(=O)(=O)O.N=C(N)Nc1ccc(C(=O)Oc2ccc3cc(C(=N)N)ccc3c2)cc1 [Futhan, 6-amidino-2-naphthyl-p-guanidinobenzoate dimethanesulfonate]",time-dependent C3a and C4a elevation in patient EDTA plasma,[2]; 60 min at room temperature (experiment 3B),effectively prevented
same,levels of C3a and C4a after 1 hr of incubation at rt,"[2]; nineteen patients, 0.1 mg/ml Futhan and 0.5 mg/ml EDTA",unchanged in most samples
same,C4 converting activity in EDTA plasma,[2]; transplant patients,fully inhibitable
same,effective inhibitory level toward Factor Xa,[3],sub-micromolar level
same,effective inhibitory level toward Hageman factor,[4],sub-micromolar level
same,C4 conversion / C-activation versus time in normal EDTA plasma,"[1]; 0.01 mg/ml Futhan, dimethanesulfonate",measurable reduction in C4 conversion; also recorded: effective in protecting normal plasma from C-activation
same,C4 cleavage in normal EDTA plasma,"[1]; 0.10 mg/ml Futhan, over a 24-hour period",virtually eliminated C4 cleavage
same,C3a levels in EDTA samples,"[1]; 0.2 mg/ml Futhan, compared with lower Futhan levels (experiment 1)",somewhat higher
same,activation of C4 in normal EDTA plasma,[1]; Futhan added (experiment 1),abolished
same,activity of all pathways with Futhan (Futhan/EDTA),"[1]; Table II, line IV",NO IN VITRO C-ACTIVATION
same,reduction in C3a levels by addition of Futhan,[1]; [10],no significant reduction
same,reduction in C4a levels by addition of Futhan,[1]; [10],only marginal reduction
same,MASP activity,[1],inhibits MASP
same,C3a and C4a generation in EDTA plasma from normal donors,"[1]; n=11, 0.1 mg/ml Futhan, rt, one hour (experiment 3A)",effectively inhibited
same,"C4 conversion in blood, additive combined with EDTA","[1]; normal donor, dimethanesulfonate",fully effective; also recorded: fully blocked in vitro C-activation
same,C3a generation in whole blood,[1]; normal donor,effective inhibitor
same,generation of C3a or C4a in stored samples,[1]; stored 24 hr on ice or frozen and thawed,minimal generation of either C3a or C4a
same,stabilizing C3 and C4 in normal whole blood,"[1]; with or without EDTA, up to one hour at room temperature (FIG. 2)",effective in stabilizing C3 and C4
C[C@H]1C[C@@H]2[C@H]([C@@H](O)C[C@@]3(C)[C@H]2CC[C@]3(O)C(=O)CO)[C@@]2(C)C=CC(=O)C=C12 [methylprednisolone],course of the rejection episode after treatment,[5],resolved rapidly

# — patent US6297024A, “Methods for assessing complement activation” (Cell Activation, Inc., priority 1999, dated 2001)
